Test [1] has as its target T1, STAT4 SH2 domain (Homo sapiens, UniProt Q14765).
T1 sequence (Q14765 1-748): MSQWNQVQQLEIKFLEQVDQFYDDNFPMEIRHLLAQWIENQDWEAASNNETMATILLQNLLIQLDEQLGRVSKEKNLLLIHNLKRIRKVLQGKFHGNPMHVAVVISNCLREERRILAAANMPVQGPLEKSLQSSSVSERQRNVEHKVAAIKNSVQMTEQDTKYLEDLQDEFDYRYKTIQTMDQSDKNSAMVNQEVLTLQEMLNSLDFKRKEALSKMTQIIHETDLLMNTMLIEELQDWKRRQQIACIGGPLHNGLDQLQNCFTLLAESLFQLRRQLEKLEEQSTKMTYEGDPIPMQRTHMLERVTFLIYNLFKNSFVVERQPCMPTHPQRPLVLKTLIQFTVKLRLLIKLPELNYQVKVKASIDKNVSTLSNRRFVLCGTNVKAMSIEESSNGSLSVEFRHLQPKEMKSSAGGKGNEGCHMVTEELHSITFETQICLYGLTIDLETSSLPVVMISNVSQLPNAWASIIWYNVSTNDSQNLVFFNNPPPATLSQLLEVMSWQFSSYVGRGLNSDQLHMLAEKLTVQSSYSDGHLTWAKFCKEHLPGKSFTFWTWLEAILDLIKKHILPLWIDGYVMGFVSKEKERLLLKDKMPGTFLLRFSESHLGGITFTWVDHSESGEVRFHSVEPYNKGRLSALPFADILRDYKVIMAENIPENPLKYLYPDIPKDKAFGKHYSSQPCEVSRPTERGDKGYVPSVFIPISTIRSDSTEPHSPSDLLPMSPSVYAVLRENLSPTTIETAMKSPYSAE
The settings on record: FP assay; data taken from the literature, ref [1] of the Supporting Information; cited from earlier work.

Test [2] deals with T2, STAT1 (Homo sapiens, UniProt P42224).
T2 sequence (P42224 1-750): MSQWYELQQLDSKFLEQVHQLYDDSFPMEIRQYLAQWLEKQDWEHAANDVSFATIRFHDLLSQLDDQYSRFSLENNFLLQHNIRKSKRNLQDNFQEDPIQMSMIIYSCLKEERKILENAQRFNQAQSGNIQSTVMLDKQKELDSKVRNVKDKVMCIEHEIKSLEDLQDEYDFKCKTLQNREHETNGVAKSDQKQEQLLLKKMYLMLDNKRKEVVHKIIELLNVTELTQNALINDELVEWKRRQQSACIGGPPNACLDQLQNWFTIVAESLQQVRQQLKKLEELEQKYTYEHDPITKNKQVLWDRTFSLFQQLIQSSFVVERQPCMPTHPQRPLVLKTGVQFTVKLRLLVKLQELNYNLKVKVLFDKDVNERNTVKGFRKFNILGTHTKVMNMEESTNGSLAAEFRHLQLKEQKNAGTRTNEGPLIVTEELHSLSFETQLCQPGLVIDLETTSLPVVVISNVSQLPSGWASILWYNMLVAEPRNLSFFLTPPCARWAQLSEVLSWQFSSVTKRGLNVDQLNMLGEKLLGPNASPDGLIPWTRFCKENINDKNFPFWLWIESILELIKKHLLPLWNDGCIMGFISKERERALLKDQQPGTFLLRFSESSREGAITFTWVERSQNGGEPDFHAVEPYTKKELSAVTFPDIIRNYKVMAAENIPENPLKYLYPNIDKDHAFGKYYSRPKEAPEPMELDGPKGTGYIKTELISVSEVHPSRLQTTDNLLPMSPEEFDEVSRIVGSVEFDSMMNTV
The settings on record: FP assay; data taken from the literature, ref [1] of the Supporting Information; cited from earlier work.

In test [3] the target is T1, STAT4 SH2 domain. The test can be described thus: Competitive fluorescence polarization (FP) assay, STAT4. It counts as binding. The following applies: for IC50: 28 nM STAT4, 10 nM tracer peptide; for Ki: Ki calculated from IC50, mean ± SD, n = 3. Here is the method: (§1) Fluorescence polarization assays
Competitive fluorescence polarization assays were carried as previously described.[1] Proteins […]
fluorescent-labeled peptides were used as tracers: 5-carboxyfluorescein-GpYLPQNID-OH for STAT4; 5-carboxyfluorescein-GpYDKPHVL for STAT1; 5-carboxyfluorescein-GpYLPQTV-NH2 for STAT3; 5-carboxyfluorescein-GpYLVLDKW for STAT5a/b, and 5-carboxyfluorescein- […]
mM Tris (pH 8.0), 50 mM NaCl, 1 mM EDTA, 1 mM DTT, 0.1 % Nonidet P-40 substitute, 2 %
DMSO. Proteins and test compound were incubated for 1 h at room temperature before the […]
(1 picture or pasted object on this page, not shown here) […]
fluorescent-labeled peptide was added. Samples were transferred to 384-well microtiter plates and fluorescence polarization was read after an additional 60 min of incubation time.
Experiments were carried out in triplicate. Percent binding was calculated based on a logarithmic curve fit using OriginPro 8G software. Conversion of IC50 values to Ki-values was achieved using the published equation[2] embedded in the corresponding Excel spread sheet […]
https://websites.umich.edu/~shaomengwanglab/software/calc_ki/ind ex.html.
(§2) Error bars represent standard deviations. […]
(§3) Experiments were carried out in triplicate. […]

Test [4] deals with T2, STAT1. The test can be described thus: Competitive fluorescence polarization (FP) assay, STAT1. The test is classed as binding. Here is the method:
as §1
(§4) STAT4; 5-carboxyfluorescein-GpYDKPHVL for STAT1; 5-carboxyfluorescein-GpYLPQTV- […]
(§5) fluorescent-labeled peptide was added. Samples were transferred to 384-well microtiter plates […]
(§6) Experiments were carried out in triplicate. Percent binding was calculated based on a logarithmic curve fit using OriginPro 8G software. Conversion of IC50 values to Ki-values was […]
as §2, §3

Another test concerns the target T3, STAT5a (Homo sapiens, UniProt P42229).
T3 sequence (P42229 1-794): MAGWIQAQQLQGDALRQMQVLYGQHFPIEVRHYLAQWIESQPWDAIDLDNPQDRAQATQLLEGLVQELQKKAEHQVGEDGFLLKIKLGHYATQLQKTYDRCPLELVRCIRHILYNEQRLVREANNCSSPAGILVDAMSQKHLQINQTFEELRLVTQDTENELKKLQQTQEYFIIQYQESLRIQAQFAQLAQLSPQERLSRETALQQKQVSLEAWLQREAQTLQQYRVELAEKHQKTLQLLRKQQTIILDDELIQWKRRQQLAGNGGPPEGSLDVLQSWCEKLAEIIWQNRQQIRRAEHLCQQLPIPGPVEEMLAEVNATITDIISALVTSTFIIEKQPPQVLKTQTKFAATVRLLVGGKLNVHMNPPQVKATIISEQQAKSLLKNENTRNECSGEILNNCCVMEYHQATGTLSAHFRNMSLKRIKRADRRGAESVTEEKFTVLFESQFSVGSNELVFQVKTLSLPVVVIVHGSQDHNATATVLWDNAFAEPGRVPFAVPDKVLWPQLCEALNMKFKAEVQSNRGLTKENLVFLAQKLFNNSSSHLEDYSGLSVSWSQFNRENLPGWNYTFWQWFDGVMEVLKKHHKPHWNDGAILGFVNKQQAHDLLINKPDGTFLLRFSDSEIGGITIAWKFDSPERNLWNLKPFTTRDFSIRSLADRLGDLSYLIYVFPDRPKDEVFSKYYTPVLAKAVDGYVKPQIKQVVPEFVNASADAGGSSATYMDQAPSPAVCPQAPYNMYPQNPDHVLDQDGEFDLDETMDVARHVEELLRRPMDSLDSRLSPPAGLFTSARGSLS
Briefly: Competitive fluorescence polarization (FP) assay, STAT5a. The test is classed as binding. The method, then:
as §1, §4, §5, §6, §2, §3
(In general: In fluorescence polarisation assays a small probe gives low polarisation when free and higher when bound to something large.)

Another test addresses T4, STAT5b (Homo sapiens, UniProt P51692).
T4 sequence (P51692 1-787): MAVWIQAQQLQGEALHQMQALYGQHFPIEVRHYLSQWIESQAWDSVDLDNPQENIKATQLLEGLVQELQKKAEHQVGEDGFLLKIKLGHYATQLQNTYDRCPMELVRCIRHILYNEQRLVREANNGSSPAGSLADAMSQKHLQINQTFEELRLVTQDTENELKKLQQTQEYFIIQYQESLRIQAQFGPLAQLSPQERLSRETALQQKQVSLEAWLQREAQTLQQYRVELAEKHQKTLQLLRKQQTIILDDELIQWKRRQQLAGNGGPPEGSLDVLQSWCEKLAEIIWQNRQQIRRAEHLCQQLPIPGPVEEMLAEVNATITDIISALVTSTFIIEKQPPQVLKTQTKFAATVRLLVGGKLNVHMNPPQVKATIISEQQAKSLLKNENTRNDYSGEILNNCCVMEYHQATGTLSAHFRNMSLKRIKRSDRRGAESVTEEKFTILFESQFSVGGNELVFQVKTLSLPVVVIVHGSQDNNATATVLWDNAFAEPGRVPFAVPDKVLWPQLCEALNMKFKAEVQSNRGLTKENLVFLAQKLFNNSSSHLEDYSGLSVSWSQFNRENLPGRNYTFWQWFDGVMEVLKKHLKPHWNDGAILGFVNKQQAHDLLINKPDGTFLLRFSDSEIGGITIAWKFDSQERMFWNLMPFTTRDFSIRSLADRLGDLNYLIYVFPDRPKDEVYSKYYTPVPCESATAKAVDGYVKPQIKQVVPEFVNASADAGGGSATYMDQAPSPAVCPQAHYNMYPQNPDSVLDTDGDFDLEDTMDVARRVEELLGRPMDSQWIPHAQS
Briefly: Competitive fluorescence polarization (FP) assay, STAT5b. The test is classed as binding. The method, then:
as §1, §4, §5, §6, §2, §3

The target in the next test is T5, STAT6 (Homo sapiens, UniProt P42226).
T5 sequence (P42226 1-847): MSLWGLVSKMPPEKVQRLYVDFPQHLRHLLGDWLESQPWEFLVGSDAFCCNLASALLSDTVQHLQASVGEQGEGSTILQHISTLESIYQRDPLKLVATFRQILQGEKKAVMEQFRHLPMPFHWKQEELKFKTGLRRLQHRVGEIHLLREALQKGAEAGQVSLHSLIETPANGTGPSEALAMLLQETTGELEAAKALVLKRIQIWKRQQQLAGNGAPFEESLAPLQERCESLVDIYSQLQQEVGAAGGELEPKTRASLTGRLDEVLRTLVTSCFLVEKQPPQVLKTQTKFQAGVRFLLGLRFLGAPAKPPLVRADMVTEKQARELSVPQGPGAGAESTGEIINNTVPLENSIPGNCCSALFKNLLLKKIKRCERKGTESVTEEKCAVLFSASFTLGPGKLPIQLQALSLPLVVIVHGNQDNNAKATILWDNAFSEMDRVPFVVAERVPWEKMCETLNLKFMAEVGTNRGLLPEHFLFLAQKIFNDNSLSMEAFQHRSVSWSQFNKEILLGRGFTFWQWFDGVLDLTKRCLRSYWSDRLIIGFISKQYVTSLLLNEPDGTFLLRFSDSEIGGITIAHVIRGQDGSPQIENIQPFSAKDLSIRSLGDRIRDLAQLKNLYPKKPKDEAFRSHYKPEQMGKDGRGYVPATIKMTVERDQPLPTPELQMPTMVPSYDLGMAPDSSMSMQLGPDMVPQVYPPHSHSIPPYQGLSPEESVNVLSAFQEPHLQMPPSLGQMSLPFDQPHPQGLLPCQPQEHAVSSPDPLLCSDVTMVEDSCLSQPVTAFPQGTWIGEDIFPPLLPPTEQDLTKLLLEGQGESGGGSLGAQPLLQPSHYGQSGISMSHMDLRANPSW
Briefly: Competitive fluorescence polarization (FP) assay, STAT6. The test is classed as binding. The method, then: as §1, §4, §5, §6, §2, §3

Setting [5] is: Ki calculated from IC50, mean ± SD, n = 3.

Like-named read-outs stand apart in the source and are kept apart here.

Broadly, the IC50 is the point on the concentration scale where inhibition reaches its midpoint. By Ki is commonly meant the dissociation constant of the complex between target and ligand, obtained from inhibition or displacement.

For the molecule `O=P(O)(O)Oc1ccc(-c2ccccc2)cc1F` [compound 13], the IC50 is 1.21 µM at STAT4 SH2 domain [1] and 12.8 µM at STAT1 [2].

As for `O=P(O)(O)Oc1ccc(-c2cccs2)cc1F` [8e], on STAT4 SH2 domain [3], the IC50 amounted to 0.6 µM and the inhibition constant Ki was 0.3 ± 0.003 µM.

Take `O=P(O)(O)Oc1ccc(-c2ccccc2)cc1` [compound 1, p‐biphenyl phosphate]: the IC50 at STAT1 [2] is 16.4 µM.

With `O=P(O)(O)Oc1ccc(-c2cccc3ccccc23)cc1` [compound 10], the IC50 at STAT1 [4] (80-92 nM STAT1, 10 nM tracer peptide) is 38 µM; on STAT5a (125-177 nM STAT5a, 10 nM tracer peptide), 8.1 µM; at STAT5b (59-85 nM STAT5b, 10 nM tracer peptide) it was 89 µM; on STAT6 (106 nM STAT6, 10 nM tracer peptide), 19.1 µM. In addition, the Ki on STAT1 [4] (setting [5]) was 17 ± 1 µM; on STAT5a (setting [5]) it was 4 ± 0.3 µM; at STAT5b (setting [5]) it was 43 ± 4 µM; on STAT6 (setting [5]), 9.4 ± 1.9 µM.

For `O=P(O)(O)Oc1ccc(-c2ccsc2)cc1F` [8d], at STAT4 SH2 domain [3], the IC50 is 0.52 µM and the Ki was 0.26 ± 0.02 µM.
